From ChEMBL document CHEMBL4765227, “Hit to lead optimization of a series of N-[4-(1,3-benzothiazol-2-yl)phenyl]acetamides as monoacylglycerol lipase inhibitors with potential anticancer activity” (Eur J Med Chem, 2016)

What was measured:
Type in all cases: functional
Conditions in all cases: read-out: GI
M14 = test: Growth inhibition of human M14 cells at 10 uM incubated for 48 hrs by sulforhodamine B assay relative to control
SN12C = test: Growth inhibition of human SN12C cells at 10 uM incubated for 48 hrs by sulforhodamine B assay relative to control
K562 = test: Growth inhibition of human K562 cells at 10 uM incubated for 48 hrs by sulforhodamine B assay relative to control
DU-145 = test: Growth inhibition of human DU-145 cells at 10 uM incubated for 48 hrs by sulforhodamine B assay relative to control
OVCAR-8 = test: Growth inhibition of human OVCAR-8 cells at 10 uM incubated for 48 hrs by sulforhodamine B assay relative to control
PC-3 = test: Growth inhibition of human PC-3 cells at 10 uM incubated for 48 hrs by sulforhodamine B assay relative to control
BT-549 = test: Growth inhibition of human BT-549 cells at 10 uM incubated for 48 hrs by sulforhodamine B assay relative to control
Hs-578T = test: Growth inhibition of human Hs-578T cells at 10 uM incubated for 48 hrs by sulforhodamine B assay relative to control
UO-31 = test: Growth inhibition of human UO-31 cells at 10 uM incubated for 48 hrs by sulforhodamine B assay relative to control
TK-10 = test: Growth inhibition of human TK-10 cells at 10 uM incubated for 48 hrs by sulforhodamine B assay relative to control
HOP-92 = test: Growth inhibition of human HOP-92 cells at 10 uM incubated for 48 hrs by sulforhodamine B assay relative to control
IGROV-1 = test: Growth inhibition of human IGROV-1 cells at 10 uM incubated for 48 hrs by sulforhodamine B assay relative to control
SNB-19 = test: Growth inhibition of human SNB-19 cells at 10 uM incubated for 48 hrs by sulforhodamine B assay relative to control
SF-268 = test: Growth inhibition of human SF-268 cells at 10 uM incubated for 48 hrs by sulforhodamine B assay relative to control
RXF 393 = test: Growth inhibition of human RXF 393 cells at 10 uM incubated for 48 hrs by sulforhodamine B assay relative to control
MDA-MB-231 = test: Growth inhibition of human MDA-MB-231 cells at 10 uM incubated for 48 hrs by sulforhodamine B assay relative to control
NCI-H23 = test: Growth inhibition of human NCI-H23 cells at 10 uM incubated for 48 hrs by sulforhodamine B assay relative to control
NCI-H522 = test: Growth inhibition of human NCI-H522 cells at 10 uM incubated for 48 hrs by sulforhodamine B assay relative to control
SF-539 = test: Growth inhibition of human SF-539 cells at 10 uM incubated for 48 hrs by sulforhodamine B assay relative to control
NCI/ADR-RES = test: Growth inhibition of human NCI/ADR-RES cells at 10 uM incubated for 48 hrs by sulforhodamine B assay relative to control
MDA-MB-468 = test: Growth inhibition of human MDA-MB-468 cells at 10 uM incubated for 48 hrs by sulforhodamine B assay relative to control
MOLT-4 = test: Growth inhibition of human MOLT-4 cells at 10 uM incubated for 48 hrs by sulforhodamine B assay relative to control
NCI-H226 = test: Growth inhibition of human NCI-H226 cells at 10 uM incubated for 48 hrs by sulforhodamine B assay relative to control
SK-MEL-28 = test: Growth inhibition of human SK-MEL-28 cells at 10 uM incubated for 48 hrs by sulforhodamine B assay relative to control
HT-29 = test: Growth inhibition of human HT-29 cells at 10 uM incubated for 48 hrs by sulforhodamine B assay relative to control
HCT-116 = test: Growth inhibition of human HCT-116 cells at 10 uM incubated for 48 hrs by sulforhodamine B assay relative to control
HCT-15 = test: Growth inhibition of human HCT-15 cells at 10 uM incubated for 48 hrs by sulforhodamine B assay relative to control
SK-MEL-5 = test: Growth inhibition of human SK-MEL-5 cells at 10 uM incubated for 48 hrs by sulforhodamine B assay relative to control
SF-295 = test: Growth inhibition of human SF-295 cells at 10 uM incubated for 48 hrs by sulforhodamine B assay relative to control
UACC-62 = test: Growth inhibition of human UACC-62 cells at 10 uM incubated for 48 hrs by sulforhodamine B assay relative to control
OVCAR-3 = test: Growth inhibition of human OVCAR-3 cells at 10 uM incubated for 48 hrs by sulforhodamine B assay relative to control
KM12 = test: Growth inhibition of human KM12 cells at 10 uM incubated for 48 hrs by sulforhodamine B assay relative to control
OVCAR-5 = test: Growth inhibition of human OVCAR-5 cells at 10 uM incubated for 48 hrs by sulforhodamine B assay relative to control
CCRF-CEM = test: Growth inhibition of human CCRF-CEM cells at 10 uM incubated for 48 hrs by sulforhodamine B assay relative to control
MCF7 = test: Growth inhibition of human MCF7 cells at 10 uM incubated for 48 hrs by sulforhodamine B assay relative to control
HCC 2998 = test: Growth inhibition of human HCC 2998 cells at 10 uM incubated for 48 hrs by sulforhodamine B assay relative to control
LOX IMVI = test: Growth inhibition of human LOX IMVI cells at 10 uM incubated for 48 hrs by sulforhodamine B assay relative to control
MDA-MB-435 = test: Growth inhibition of human MDA-MB-435 cells at 10 uM incubated for 48 hrs by sulforhodamine B assay relative to control
COLO 205 = test: Growth inhibition of human COLO 205 cells at 10 uM incubated for 48 hrs by sulforhodamine B assay relative to control
SNB-75 = test: Growth inhibition of human SNB-75 cells at 10 uM incubated for 48 hrs by sulforhodamine B assay relative to control
Malme-3M = test: Growth inhibition of human Malme-3M cells at 10 uM incubated for 48 hrs by sulforhodamine B assay relative to control
UACC-257 = test: Growth inhibition of human UACC-257 cells at 10 uM incubated for 48 hrs by sulforhodamine B assay relative to control
OVCAR-4 = test: Growth inhibition of human OVCAR-4 cells at 10 uM incubated for 48 hrs by sulforhodamine B assay relative to control
HL-60(TB) = test: Growth inhibition of human HL-60(TB) cells at 10 uM incubated for 48 hrs by sulforhodamine B assay relative to control

Cc1cc(NCC(=O)Nc2ccc(-c3nc4ccccc4s3)cc2)no1
inhibition of growth at 10 µM (M14): -5.87% | inhibition of growth at 10 µM (SN12C): -2.43% | inhibition of growth at 10 µM (K562): 17% | inhibition of growth at 10 µM (DU-145): 4.13% | inhibition of growth at 10 µM (OVCAR-8): 3.61% | inhibition of growth at 10 µM (PC-3): 3.37% | inhibition of growth at 10 µM (BT-549): 5.29% | inhibition of growth at 10 µM (Hs-578T): -1.12% | inhibition of growth at 10 µM (UO-31): 23% | inhibition of growth at 10 µM (TK-10): 7.91% | inhibition of growth at 10 µM (HOP-92): -0.34% | inhibition of growth at 10 µM (IGROV-1): 11.5% | inhibition of growth at 10 µM (SNB-19): 3.47% | inhibition of growth at 10 µM (SF-268): 12.6% | inhibition of growth at 10 µM (RXF 393): -4.8% | inhibition of growth at 10 µM (MDA-MB-231): -8.49% | inhibition of growth at 10 µM (NCI-H23): 17.2% | inhibition of growth at 10 µM (NCI-H522): 17.9% | inhibition of growth at 10 µM (SF-539): -5.46% | inhibition of growth at 10 µM (NCI/ADR-RES): -2.68% | inhibition of growth at 10 µM (MDA-MB-468): 147% | inhibition of growth at 10 µM (MOLT-4): 53.2% | inhibition of growth at 10 µM (NCI-H226): 8.98% | inhibition of growth at 10 µM (SK-MEL-28): -10.5% | inhibition of growth at 10 µM (HT-29): -4.71% | inhibition of growth at 10 µM (HCT-116): 9.26% | inhibition of growth at 10 µM (HCT-15): 9.32% | inhibition of growth at 10 µM (SK-MEL-5): 12.3% | inhibition of growth at 10 µM (SF-295): 3.62% | inhibition of growth at 10 µM (UACC-62): 13.5% | inhibition of growth at 10 µM (OVCAR-3): 0.7% | inhibition of growth at 10 µM (KM12): -1.64% | inhibition of growth at 10 µM (OVCAR-5): -19% | inhibition of growth at 10 µM (CCRF-CEM): 46.3% | inhibition of growth at 10 µM (MCF7): 64.1% | inhibition of growth at 10 µM (HCC 2998): 0.84% | inhibition of growth at 10 µM (LOX IMVI): 143% | inhibition of growth at 10 µM (MDA-MB-435): -4.18% | inhibition of growth at 10 µM (COLO 205): -7.78% | inhibition of growth at 10 µM (SNB-75): -11.5% | inhibition of growth at 10 µM (Malme-3M): 10.5% | inhibition of growth at 10 µM (UACC-257): 0.29% | inhibition of growth at 10 µM (OVCAR-4): -10.7% | inhibition of growth at 10 µM (HL-60(TB)): 3.55%

O=C(CNc1nc2ccccc2s1)Nc1ccc(-c2nc3ccccc3s2)cc1
inhibition of growth at 10 µM (M14): -15.4% | inhibition of growth at 10 µM (SN12C): -2.68% | inhibition of growth at 10 µM (K562): 4.87% | inhibition of growth at 10 µM (DU-145): -5.64% | inhibition of growth at 10 µM (OVCAR-8): -2.25% | inhibition of growth at 10 µM (PC-3): 4.99% | inhibition of growth at 10 µM (BT-549): -6.3% | inhibition of growth at 10 µM (Hs-578T): -0.48% | inhibition of growth at 10 µM (UO-31): 19.5% | inhibition of growth at 10 µM (TK-10): 3.3% | inhibition of growth at 10 µM (HOP-92): 0.18% | inhibition of growth at 10 µM (IGROV-1): 33.4% | inhibition of growth at 10 µM (SNB-19): -0.11% | inhibition of growth at 10 µM (SF-268): 7.92% | inhibition of growth at 10 µM (RXF 393): -12.5% | inhibition of growth at 10 µM (MDA-MB-231): 0.75% | inhibition of growth at 10 µM (NCI-H23): 11.2% | inhibition of growth at 10 µM (NCI-H522): 8.76% | inhibition of growth at 10 µM (SF-539): -7.1% | inhibition of growth at 10 µM (NCI/ADR-RES): -1.94% | inhibition of growth at 10 µM (MDA-MB-468): 118% | inhibition of growth at 10 µM (MOLT-4): 15.8% | inhibition of growth at 10 µM (NCI-H226): 7.62% | inhibition of growth at 10 µM (SK-MEL-28): -13.3% | inhibition of growth at 10 µM (HT-29): -8.9% | inhibition of growth at 10 µM (HCT-116): 1.08% | inhibition of growth at 10 µM (HCT-15): -4.63% | inhibition of growth at 10 µM (SK-MEL-5): -2.93% | inhibition of growth at 10 µM (SF-295): -7.45% | inhibition of growth at 10 µM (UACC-62): 5.38% | inhibition of growth at 10 µM (OVCAR-3): 2.04% | inhibition of growth at 10 µM (KM12): 0.84% | inhibition of growth at 10 µM (OVCAR-5): 1.6% | inhibition of growth at 10 µM (CCRF-CEM): -10.5% | inhibition of growth at 10 µM (MCF7): 75.2% | inhibition of growth at 10 µM (HCC 2998): 7.87% | inhibition of growth at 10 µM (LOX IMVI): 24.2% | inhibition of growth at 10 µM (MDA-MB-435): -8.66% | inhibition of growth at 10 µM (COLO 205): -11.7% | inhibition of growth at 10 µM (SNB-75): 1.04% | inhibition of growth at 10 µM (Malme-3M): 1.87% | inhibition of growth at 10 µM (UACC-257): -1.9% | inhibition of growth at 10 µM (OVCAR-4): -1.76% | inhibition of growth at 10 µM (HL-60(TB)): 0.87%
